The species entered for one test is Cavia porcellus. Briefly: Concentration of compound required for evaluating efficacy in guinea pig ileum (GPI). Format: functional, organism-based.
The species named for the next test is Mus musculus. Description: Concentration of compound required for evaluating efficacy in mouse vas deferens (MVD). It counts as functional, organism-based.
Another test addresses Mu-type opioid receptor (Homo sapiens, UniProt P35372). Description: In vitro binding affinity towards mu opioid receptors was determined using [3H][p-Cl-Phe]- 4] DPDPE or [3H]deltorphin II.
Test [1] has as its target Delta-type opioid receptor (Homo sapiens, UniProt P41143). Briefly: In vitro binding affinity towards Opioid receptor delta 1 was determined using […].

pEC50, pIC50: −log10 of the molar value.

Chain of Delta-type opioid receptor (P41143 whole entry): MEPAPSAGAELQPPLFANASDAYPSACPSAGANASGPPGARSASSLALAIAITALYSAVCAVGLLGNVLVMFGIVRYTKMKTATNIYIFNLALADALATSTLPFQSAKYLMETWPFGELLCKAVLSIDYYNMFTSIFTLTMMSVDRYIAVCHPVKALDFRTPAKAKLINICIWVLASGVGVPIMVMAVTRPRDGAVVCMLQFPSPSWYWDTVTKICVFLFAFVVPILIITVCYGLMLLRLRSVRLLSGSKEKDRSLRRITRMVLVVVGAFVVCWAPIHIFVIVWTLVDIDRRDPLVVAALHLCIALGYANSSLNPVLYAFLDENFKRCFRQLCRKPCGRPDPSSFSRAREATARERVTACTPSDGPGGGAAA
Chain of Mu-type opioid receptor (P35372 whole entry): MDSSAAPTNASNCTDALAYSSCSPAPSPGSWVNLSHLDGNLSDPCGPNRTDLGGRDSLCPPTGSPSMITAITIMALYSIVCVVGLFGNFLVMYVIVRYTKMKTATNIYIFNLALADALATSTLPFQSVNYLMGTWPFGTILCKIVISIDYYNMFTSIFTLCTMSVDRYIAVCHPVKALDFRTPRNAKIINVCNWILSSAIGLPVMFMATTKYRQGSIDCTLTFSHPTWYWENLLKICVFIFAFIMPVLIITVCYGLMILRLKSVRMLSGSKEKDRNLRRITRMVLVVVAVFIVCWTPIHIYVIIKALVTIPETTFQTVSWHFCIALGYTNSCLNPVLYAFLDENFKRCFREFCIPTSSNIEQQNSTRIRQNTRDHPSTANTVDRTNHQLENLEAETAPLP

Regarding `CCCC[C@@H](N)C(=O)NNC(=O)[C@H](Cc1ccccc1)NC(=O)CNC(=O)[C@@H](C)NC(=O)[C@@H](N)Cc1ccc(O)cc1`, the results for the negative-log EC50 (pEC50) in the test listed under Cavia porcellus and in the test listed under Mus musculus were 8.28 and 7.02, respectively. Also, the pIC50 at Mu-type opioid receptor was 8.23; in test [1] it was 7.15.
The corresponding values for `C[C@@H](NC(=O)[C@@H](N)Cc1ccc(O)cc1)C(=O)NCC(=O)N[C@@H](Cc1c[nH]c2ccccc12)C(=O)NNC(=O)[C@H](N)Cc1ccccc1` are 7.59, 6.89, 8.08 and 7.34.
In the same order, the values of `CCCC[C@H](N)C(=O)NNC(=O)[C@H](Cc1ccccc1)NC(=O)CNC(=O)[C@@H](C)NC(=O)[C@@H](N)Cc1ccc(O)cc1` are 7.62, 7.70, 8.89 and 7.68.
Take `C[C@@H](NC(=O)[C@@H](N)Cc1ccc(O)cc1)C(=O)NCC(=O)N[C@@H](Cc1ccccc1)C(=O)NNC(=O)[C@H](N)Cc1ccccc1`: the negative logarithm of the EC50 (pEC50) is 8.62 in the test listed under Cavia porcellus and 7.57 in the test listed under Mus musculus. Besides, the negative-log IC50 (pIC50) at Mu-type opioid receptor was 9.13; in test [1] it was 7.82.
In the same order, the values of `C[C@@H](NC(=O)[C@@H](N)Cc1ccc(O)cc1)C(=O)NCC(=O)N[C@@H](Cc1ccccc1)C(=O)NNC(=O)[C@H](N)Cc1ccc(O)cc1` are 7.82, 7.35, 8.80 and 7.80.
In the same order, the values of `C[C@@H](NC(=O)[C@@H](N)Cc1ccc(O)cc1)C(=O)NCC(=O)N[C@@H](Cc1ccccc1)C(=O)NN` are 7.05, 6.54, 8.33 and 6.64.
In the same order, the values of `C[C@@H](NC(=O)[C@@H](N)Cc1ccc(O)cc1)C(=O)NCC(=O)N[C@@H](Cc1ccccc1)C(=O)NNC(=O)[C@H](N)Cc1c[nH]c2ccccc12` are 8.15, 7.82, 8.70 and 7.54.
With `C[C@@H](NC(=O)[C@@H](N)Cc1ccc(O)cc1)C(=O)NCC(=O)N[C@@H](Cc1ccccc1)C(=O)NNC(=O)[C@@H](N)Cc1ccccc1`, the pEC50 in the test listed under Cavia porcellus was 8.01; in the test filed under Mus musculus, 7.49. Further, the negative logarithm of the IC50 (pIC50) at Mu-type opioid receptor is 9.06; in test [1], 7.52.
Consider `C[C@@H](NC(=O)[C@@H](N)Cc1ccc(O)cc1)C(=O)NCC(=O)N[C@@H](Cc1ccccc1)C(=O)NNC(=O)[C@H](Cc1ccccc1)NC(=O)CNC(=O)[C@@H](C)NC(=O)[C@@H](N)Cc1ccc(O)cc1` [BIPHALIN], for which the results for the pEC50 in the test listed under Cavia porcellus and in the test filed under Mus musculus were 8.06 and 7.57, respectively. Moreover, at Mu-type opioid receptor, the negative logarithm of the IC50 (pIC50) was 8.85.

In general, pEC50 refers to −log10 of the EC50, conventionally taken in molar units. A low value points to a large EC50. In general, pIC50 refers to the IC50 on a negative log10 scale, so that one unit is a factor of ten.

For the origin of these results see ChEMBL document CHEMBL1131989 (Bioorg Med Chem Lett, 1999).
